Data from patent US10982252B2, “Bacterial systems for analyzing ubiquitylated polypeptides” (Technology Innovation Momentum Fund (Israel) Limited …, priority 2016, dated 2021).

Tests used:
[1] = tested on: Ub; test: Surface plasmon resonance, immobilized Sc_ENTH and free mono-Ub; format: binding; settings: mutant complexes; Ub concentrations too low for accurate Kd, high standard errors
Method: Surface plasmon resonance: Purified His6-MBP-ENTH or mutants were immobilized on an Ni^+2 chip at a density of ˜800U. Untagged Ub (analyte) was injected at a flow rate of […] in 150 mM NaCl, 10 mM HEPES pH 7.0 and 0.010% poly-sorbate 20 at 24° C.; 500 mM imidazole was used for surface regeneration. To avoid immobilization of aggregated analyte the purified Ub was chromatographed by gel filtration and briefly sonicated immediately before SPR experiments. Data were processed with BioEvaluation and fitting carried out as a single-site-binding model with OriginLab. Standard errors derived from at least three samples.
Finally, to biophysically corroborate the data and to quantify the affinity of the ENTH:Ub complex, Surface Plasmon Resonance (SPR) measurements were performed with immobilized Sc_ENTH and free mono-Ub (FIG. 5I). […] Together, the correlation between the SPR measurements, the genetic and biochemical data provides a rough estimation for the sensitivity of the selection system in monitoring Ub binding.

[2] = target: T1, E1 (Triticum aestivum, UniProt P20973); test: Selection experiments in solution growth media (96-well, TRIM with or without Pyr-41), Hrs dsUIM ubiquitination; format: cell-based; settings: 100 μM Pyr-41, with or without TRIM, n=9; FIG. 3D
T1 construct: expressed in transfected cells; host or cells: E. coli
T1 sequence (P20973 1-1051): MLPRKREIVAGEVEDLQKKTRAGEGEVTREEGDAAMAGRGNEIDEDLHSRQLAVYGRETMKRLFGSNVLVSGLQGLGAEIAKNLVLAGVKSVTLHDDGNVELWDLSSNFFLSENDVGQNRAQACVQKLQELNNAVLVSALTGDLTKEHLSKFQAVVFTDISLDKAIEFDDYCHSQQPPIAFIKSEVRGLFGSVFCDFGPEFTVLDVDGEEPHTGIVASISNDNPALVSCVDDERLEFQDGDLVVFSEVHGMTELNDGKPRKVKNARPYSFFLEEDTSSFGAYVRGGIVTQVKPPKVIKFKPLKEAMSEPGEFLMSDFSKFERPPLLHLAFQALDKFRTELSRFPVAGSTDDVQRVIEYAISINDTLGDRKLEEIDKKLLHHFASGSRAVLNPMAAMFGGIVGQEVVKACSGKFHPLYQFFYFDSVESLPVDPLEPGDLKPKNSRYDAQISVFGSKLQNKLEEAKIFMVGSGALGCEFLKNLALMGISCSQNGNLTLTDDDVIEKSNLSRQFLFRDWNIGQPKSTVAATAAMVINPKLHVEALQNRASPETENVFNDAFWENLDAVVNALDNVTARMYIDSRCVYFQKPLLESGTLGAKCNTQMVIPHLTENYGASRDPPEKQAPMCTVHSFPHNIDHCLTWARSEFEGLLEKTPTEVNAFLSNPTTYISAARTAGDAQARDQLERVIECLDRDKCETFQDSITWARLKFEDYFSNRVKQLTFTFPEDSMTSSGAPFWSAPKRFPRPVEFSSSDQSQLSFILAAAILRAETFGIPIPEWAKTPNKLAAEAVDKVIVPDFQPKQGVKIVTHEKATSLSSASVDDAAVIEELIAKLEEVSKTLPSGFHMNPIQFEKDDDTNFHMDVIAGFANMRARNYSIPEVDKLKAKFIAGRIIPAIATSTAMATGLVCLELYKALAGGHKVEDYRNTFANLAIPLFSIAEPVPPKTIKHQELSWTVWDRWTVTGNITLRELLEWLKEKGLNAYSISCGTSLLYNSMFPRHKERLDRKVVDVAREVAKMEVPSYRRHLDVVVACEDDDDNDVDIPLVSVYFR
Method: Selection experiments in solution growth media: Overnight cultures in LB medium (supplemented with 30 μg/ml kanamycin and 25 μg/ml streptomycin) were harvested and re-suspended in Davis minimal medium. Diluted cells (OD600, 0.2) were grown at 30° C. in 96-well plates containing 0.2 ml Davis medium supplemented with 0, 1, 5, 7, 10 and 12 μg/ml TRIM and with or without 100 μM Pyr-41. Growth rates were monitored by measuring the optical density (OD595) using a microplate spectrophotometer. Doubling time was calculated for early logarithmic growth (OD595 between 0.02 and 0.2). All experiments were performed at least 9 times (n=9).
The selection system stabilizes the dynamic and weak UBD:Ub non-covalent interactions by forming a covalent bond between Ub and Ub-receptor (i.e. ubiquitination) in the bacteria. The present inventors assessed the ability of the system to sense low affinity UBD by tethering the double-sided UIM (dsUIM) of Hrs as substrate^27,28 (FIG. 3A). The structures of Hrs:STAM (also known as ESCRT-0 complex) and particularly its dsUIM:Ub complex, were determined and facilitated detailed molecular assessment^29,30. The E3-independent self-ubiquitination of most Ub-receptors and the promiscuous function of Ubc4/5 subfamily members aided in the analysis. […] Similarly, I44-patch mutant abolished bacterial growth.

[3] = target: T2, Siah2 (Homo sapiens, UniProt O43255); test: Ubiquitination-dependent E. coli growth assay, bacteria addicted to Siah2 self-ubiquitination; format: cell-based; settings: only under the addictive conditions (selective media, TRIM); FIG. 2B right
T2 construct: expressed in transfected cells; host or cells: E. coli W3110
T2 sequence (O43255 1-324): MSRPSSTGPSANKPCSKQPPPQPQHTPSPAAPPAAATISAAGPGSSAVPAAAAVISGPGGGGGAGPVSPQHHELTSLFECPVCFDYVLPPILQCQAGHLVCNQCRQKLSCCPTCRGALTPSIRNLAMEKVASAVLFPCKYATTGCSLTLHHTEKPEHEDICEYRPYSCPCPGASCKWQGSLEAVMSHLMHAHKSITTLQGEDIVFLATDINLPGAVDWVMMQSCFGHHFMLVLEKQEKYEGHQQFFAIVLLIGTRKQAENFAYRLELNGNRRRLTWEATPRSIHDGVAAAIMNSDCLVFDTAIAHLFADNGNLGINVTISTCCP
Method: Ubiquitination-dependent E. coli growth assay: E. coliW3110 (from Ezra Yagil laboratory at TAU) were co-transformed with the pND-Ub and the pCD-Sub plasmids and plated on LB agar supplemented with 34 μg/ml kanamycin and 25 μg/ml streptomycin. 5 ml of liquid LB medium supplemented with the same antibiotic concentrations were inoculated with a single colony and left to grow overnight at 37° C. The culture was harvested and washed twice with 5 ml of minimal Davis medium. The optical density (OD600.) was measured and adjusted to 0.2. Two and a half microliters of the diluted cultures from each sample were spotted on agar Davis plates containing 0, 0.5, 5, 10, 20 or 50 μg/ml of TRIM. The plates were incubated for 2-3 days at 30° C. and photographed with a UV camera in identical conditions. Each spotting assay was repeated at least 6 times.
Most E3-ligases undergo self-ubiquitination^20. The developed selection system thus provides a straightforward tool for their identification and characterization as self-ubiquitination is predicted to confer antibiotic resistance. Yeast Rsp5 and human Siah2, representatives of the HECT and the RING ligases, respectively, were fused to cDHFR. Growth phenotypes were observed under non-permissive conditions, only when all the required ubiquitination components were co-expressed (FIGS. 2A-B). […]

[4] = target: Ub (Homo sapiens, UniProt P0CG47); settings: reference 26; read-out: affinity of VHS:Ub complex; cited from earlier work

In the case of “Ub R42E, R72E: R42E, R72E double mutant of ubiquitin”, the “estimated affinity, fold lower than that of the wild-type” value [1] is reported as 2.6 fold.

With `CCOC(=O)c1ccc(N2NC(=O)/C(=C/c3ccc([N+](=O)[O-])o3)C2=O)cc1` [PYR41] the “effect on bacterial growth (relative growth rates at log phase)” value [2] was “attenuates bacterial growth only in the non-permissive conditions”.

In the case of `CC1=CC(=O)c2ccccc2C1=O` [menadione], the “growth phenotype in the presence of menadione” value [3] is reported as “growth arrest phenotype”.

B1: Vps27: VHS domain of Vps27 in VHS:Ub complex (protein)
chain: IHSVDLSDEEKDSIYMFASLVEKMKSRPLNEILEDSKLQNLAQRVFASKARLNYALNDKAQKYNTLIEMNGKISEIMNIYDRLLEQQLQSINLSQQMEKKITGYTTVDISQWHRKEHFEAFQSVAQ
modifications: left off: small tags and cut ends
notes: VHS domain of Vps27 in VHS:Ub complex
In the case of B1, the Kd [4] is listed as 1500 µM.
